This is an account of results in patent US10548979B2, “Light-activated compositions and methods using the same” (THE REGENTS OF THE UNIVERSITY OF COLORADO, A BODY CORPORATE, priority 2015, dated 2020).

Molecules are shown by their SMILES.

Assay [1] concerns MDR S. typhimurium. Put plainly: Antibiotic IC50 measurement (Resazurin) in clinical isolates. As to conditions: 24 h growth. In kind it is cell-based, Salmonella typhimurium. On the procedure:
Overnight cultures of clinical isolates were diluted to a 0.5 McFarland standard in CAMHB with respective test concentration of antibiotic. […] The slope of Resazurin fluorescence was used a quantitative measure of cell metabolism.
On the technique in general: The colour change of resazurin is a common sign of viable cells or microbes.

Assay [2] has as its system MDR E. coli. Described as above. The format is cell-based, Escherichia coli. As to conditions: 24 h growth. As for the experimental part: Overnight cultures of clinical isolates were diluted to a 0.5 McFarland standard in CAMHB with respective test concentration of antibiotic. Cultures were grown for 24 h at 37° C. with 225 rpm shaking. After 24 h of growth, Resazurin sodium salt (Sigma Aldrich) solution was added and the reaction was monitored for fluorescence measuring every 5 min for 4 h at 37° C. with 225 rpm shaking using 485/610 nm filters. The slope of Resazurin fluorescence was used a quantitative measure of cell metabolism. The IC50 was determined as the concentration of antibiotic which caused a 50% reduction in slope compared to the same biological replicate in no treatment.

The subject of assay [3] is ESBL K. pneumoniae. Put plainly: Combinatorial experiments CdTe-2.4 with antibiotic, growth (optical density). In kind it is cell-based, Klebsiella pneumoniae. As to conditions: breakpoint amount of streptomycin, without CdTe-2.4. As for the experimental part:
Five antibiotic concentrations were selected for each strain, so that the levels tested would be below the IC50, near the CLSI or defined breakpoint, and near the IC50. Concentrations of CdTe-2.4 were held constant for all strains at 12.5 nM, 25 nM, and 50 nM. Using these metrics, three biological replicates were tested from each strain with 15 test conditions as well as monotherapy controls and a no treatment condition. Clinical strains were diluted 1:100 from overnight into test condition and grown at 37° C. with 225 rpm. Optical density was measured every 30 min for the first 3 h and every hour subsequently until 8 h. After 8 h of growth, Resazurin sodium salt solution was added and the reaction was monitored for fluorescence measuring every 5 min for 4 h at 37° C. with 225 rpm shaking using 485/610 nm filters. The slope of Resazurin fluorescence was used a quantitative measure of cell metabolism.

On to `O=C(N[C@H](CO)[C@H](O)c1ccc([N+](=O)[O-])cc1)C(Cl)Cl` [chloramphenicol], for which the “sensitivity to antibiotic (IC50 versus CLSI or breakpoint)” value in assay [1] and in assay [2] was “sensitive” each time.
For the molecule `[H]/N=C(/N)N[C@H]1[C@H](O)[C@@H](O)[C@H](O[C@@H]2O[C@@H](C)[C@](O)(C=O)[C@H]2O[C@@H]2O[C@@H](CO)[C@H](O)[C@@H](O)[C@@H]2NC)[C@@H](N/C(N)=N\[H])[C@@H]1O` [streptomycin], in assay [3], the “effect of antibiotic alone on growth” value was “previously ineffective”.
